The text below walks through data of patent US10131928B2, “Inositol biotransformation” (University Court of the University of St Andrews, priority 2013, dated 2018).

The structures appear in SMILES notation. Where two headings read alike, the source gives them in different places.

Holding throughout (format): biochemical
Test [1] addresses T1, TbINO1 (Trypanosoma brucei brucei, UniProt Q5QQ46).
T1 construct: Hexa-His (N); made in house; host or cells: E. coli BL21 Rosetta (DE3)
T1 sequence (Q5QQ46 1-528): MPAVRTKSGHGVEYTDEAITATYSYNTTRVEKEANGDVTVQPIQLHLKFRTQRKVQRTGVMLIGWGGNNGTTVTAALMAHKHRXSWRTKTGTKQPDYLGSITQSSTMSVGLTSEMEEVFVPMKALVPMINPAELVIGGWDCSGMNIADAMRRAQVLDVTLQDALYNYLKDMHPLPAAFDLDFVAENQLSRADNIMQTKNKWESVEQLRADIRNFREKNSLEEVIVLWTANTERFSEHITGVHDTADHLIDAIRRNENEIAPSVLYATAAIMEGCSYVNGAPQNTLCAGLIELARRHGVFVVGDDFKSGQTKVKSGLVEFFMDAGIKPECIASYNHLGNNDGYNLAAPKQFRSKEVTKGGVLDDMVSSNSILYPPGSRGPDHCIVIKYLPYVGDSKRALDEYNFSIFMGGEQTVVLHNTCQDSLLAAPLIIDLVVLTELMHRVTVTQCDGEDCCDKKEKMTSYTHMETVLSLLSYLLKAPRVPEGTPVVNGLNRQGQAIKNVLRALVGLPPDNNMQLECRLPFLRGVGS
In words: biochemical. As for the experimental part:
(§1) An alternative reaction mixture consisted of 2 mM Tris-Ac (pH 9), 2 mM glucose-6-phosphate, 1 mM NAD^+, 1 mM DTT, 2 mM NH4Ac and 5 μg protein in a final volume of 20 μL. The reaction was incubated at 37° C. for 1 hr and terminated by heating at 100° C. for 10 min and the addition of 80 μL of 10 mM NaOH. For inhibitor studies the standard reaction mixture was prepared without glucose-6-phosphate, the inhibitor was added to the reaction and incubated on ice for 10 min prior to the addition of glucose-6-phosphate and subsequent incubation of 37° C. for 1 hr.
(§2) After quenching the reaction mix was analysed by high performance anion-exchange chromatography using a Dionex HPLC system with a CarboPacPA-1 column and PA-1 guard column (Dionex). The column was pre-equilibrated with 95% Buffer A (1 mM sodium hydroxide) and 5% Buffer B (1M sodium acetate+1 mM sodium hydroxide). An aliquot (20 μL) of the quenched reaction mixture was injected onto the column and eluted a linear gradient of 5-40% […], detected with pulsed amperometric detection and analysed with Chromeleon software (Dionex).
(§3) The TbINO1 was pre-incubated with potential inhibitor prior to the addition of glucose-6-phosphate or fructose-6-phosphate and quantification of inositol-3-phosphate and fructose-6-phosphate by HPLC.

The target of test [2] is T1, TbINO1. The experiment in a line: biochemical. On the procedure:
as §1, §2, §3
This is another data set of the same source.

Test [3] concerns the target T1, TbINO1. In words: Compounds tested as substrates for TbINO1 in the standard reaction mixture, products separated by HPLC. The settings on record: tested as substrate, longer time periods; intermediate conversion to glucose-6-phosphate. On the procedure:
as §1
as §2, with “software (Dionex). The substrate glucose-6-phosphate and the product inositol-3-phosphate are clearly separated by this method. […]” for “software (Dionex).”

Setting [4] is: Table 3, metabolic intermediates, pre-incubated, glucose-6-phosphate as substrate, read-out: IC50 INO1 activity.
Setting [5] is: Table 3, metabolic intermediates, pre-incubated, fructose-6-phosphate as substrate, read-out: IC50 PGI activity.
Setting [6] is: Table 2, inhibitor pre-incubated with recombinant TbINO1, glucose-6-phosphate as substrate, read-out: IC50 INO1 activity.
The mark [7] stands for this setting: Table 2, inhibitor pre-incubated with recombinant TbINO1, fructose-6-phosphate as substrate, read-out: IC50 PGI activity.

Consider `O=C[C@@H](O)[C@@H](O)[C@H](O)[C@H](O)COP(=O)(O)O` [Mannose-6-P, mannose-6-phosphate], for which, at TbINO1 [1], the IC50 is greater than 10 mM and the “inhibition of INO1 activity” value is given as “No inhibition”. Moreover, on TbINO1 [2], the half-inhibitory concentration (IC50) was greater than 10 mM and the “inhibition of PGI (glucose-6-phosphate isomerase) activity” value (from here on “inhibition of PGI”) is on record as “No inhibition”.

On to `O=C(O)CC(=O)C(=O)O` [OAA], for which the “inhibition of INO1 activity” value against TbINO1 [1] is given as “Inhibition was observed”. Further, the values for the IC50 on TbINO1 [1] (setting [4]) and at TbINO1 [2] (setting [5]) were 1.5 mM and 2 mM, respectively. Besides, the “inhibition of PGI” value on TbINO1 [2] is reported as “Inhibition was observed”.

In the case of `O=C(CO)CO` [DHA], the “inhibition of INO1 activity” value at TbINO1 [1] is listed as “no inhibition”. For the same compound, the IC50 at TbINO1 [1] (setting [4]) and at TbINO1 [2] (setting [5]) was greater than 10 mM each time. Also, the “inhibition of PGI” value at TbINO1 [2] is on record as “no inhibition”.

Take `O=C(CO)[C@@H](O)[C@H](O)[C@H](O)COP(=O)(O)O` [fructose-6-phosphate]: the “conversion to inositol-3-phosphate by TbINO1” value on TbINO1 [3] is recorded as “quantitative conversion”.

`CC(=O)N[C@H]1C(O)O[C@H](COP(=O)(O)O)[C@@H](O)[C@@H]1O` (some centres unmarked) [Acetylglucosamine-6-P, acetylglucosamine-6-phosphate]: the “inhibition of INO1 activity” value against TbINO1 [1] is reported as “No inhibition”. For the same compound, the IC50 at TbINO1 [1] (setting [6]) and at TbINO1 [2] (setting [7]) was greater than 10 mM in each case. The “inhibition of PGI” value against TbINO1 [2] is reported as “No inhibition”.

With `O=CC[C@@H](O)[C@H](O)[C@H](O)CO` [2-Deoxyglucose], the half-maximal inhibitory concentration (IC50) against TbINO1 [1] and on TbINO1 [2] was greater than 10 mM in each case.

Regarding `COC1O[C@H](COP(=O)(O)O)[C@@H](O)[C@H](O)[C@H]1O` (some centres unmarked) [1-OMe-Glucose-6-P, glucose-1-O-methyl-6-phospahte], the IC50 at TbINO1 [1] (setting [6]) and on TbINO1 [2] (setting [7]) was 2.5 mM throughout.

In the case of `O=P(O)(O)OC[C@H]1OC(O)[C@H](O)[C@@H](F)[C@@H]1O` (some centres unmarked) [3-F-Glucose-6-P, 3-fluoro-glucose-6-phospahte], the IC50 against TbINO1 [1] and at TbINO1 [2] was 2.5 mM throughout.

Consider `O=C(O)[C@H](O)[C@@H](O)[C@H](O)[C@H](O)COP(=O)(O)O` [6-phosphogluconic acid], for which, on TbINO1 [1], the IC50 is greater than 10 mM and the “inhibition of INO1 activity” value was “No inhibition”. Besides, at TbINO1 [2], the 50% inhibitory concentration (IC50) is greater than 10 mM and the “inhibition of PGI” value is “No inhibition”.

For `CCCC(CCC)C(=O)O` [VPA], the “inhibition of INO1 activity” value on TbINO1 [1] was “No inhibition”. Moreover, the 50% inhibitory concentration (IC50) at TbINO1 [1] (setting [4]) and on TbINO1 [2] (setting [5]) was greater than 10 mM in each case. In addition, at TbINO1 [2], the “inhibition of PGI” value was “No inhibition”.

For `O=P(O)(O)OCC(O)CO` (centres unmarked) [Glycerophosphate], the “inhibition of INO1 activity” value at TbINO1 [1] was “No inhibition”. Further, the IC50 at TbINO1 [1] (setting [6]) and at TbINO1 [2] (setting [7]) was greater than 10 mM each time. Further, the “inhibition of PGI” value against TbINO1 [2] is on record as “No inhibition”.

With `O=CC(O)CO` (centres unmarked) [Glyceraldehyde, glyceraldehyde], on TbINO1 [1], the IC50 is greater than 10 mM and the “inhibition of INO1 activity” value was “no inhibition”. On TbINO1 [2], the half-maximal inhibitory concentration (IC50) was greater than 10 mM and the “inhibition of PGI” value is “no inhibition”.

For `CC(=O)N[C@H]1C(OP(=O)(O)O)O[C@H](CO)[C@@H](O)[C@@H]1O` (some centres unmarked) [Acetylglucosamine-1-P, acetylglucosamine-1-phosphate], at TbINO1 [1], the “inhibition of INO1 activity” value is on record as “No inhibition”. Further, the 50% inhibitory concentration (IC50) on TbINO1 [1] (setting [6]) and at TbINO1 [2] (setting [7]) was greater than 10 mM throughout. Also, on TbINO1 [2], the “inhibition of PGI” value is recorded as “No inhibition”.

Turning to `CC(=O)C(=O)O` [Pyruvate, pyruvate], the IC50 against TbINO1 [1] and at TbINO1 [2] was greater than 10 mM each time.

`O=P(O)(O)OC[C@H]1OC(O)[C@H](O)[C@@H](O)[C@@H]1F` (some centres unmarked) [4-F-Glucose-6-P, 4-fluoro-glucose-6-phospahte]: the IC50 against TbINO1 [1] and on TbINO1 [2] was greater than 10 mM throughout.

On to `O=P(O)(O)OC[C@H]1OC(O)[C@H](F)[C@@H](O)[C@@H]1O` (some centres unmarked) [2-F-Glucose-6-P, 2-fluoro-glucose-6-phospahte], for which the IC50 at TbINO1 [1] (setting [6]) and on TbINO1 [2] (setting [7]) was 1 mM in each case.

Consider `O=C[C@H](O)COP(=O)(O)O` [GAP], for which the “inhibition of INO1 activity” value at TbINO1 [1] is given as “Inhibition was observed”. Further, the IC50 at TbINO1 [1] (setting [4]) and on TbINO1 [2] (setting [5]) was 2 mM each time. The “inhibition of PGI” value against TbINO1 [2] is “Inhibition was observed”.

Take `O=C(CO)COP(=O)(O)O` [DHAP]: the “inhibition of INO1 activity” value against TbINO1 [1] was “Inhibition was observed”. Further, the IC50 at TbINO1 [1] (setting [4]) and on TbINO1 [2] (setting [5]) was 3 mM throughout. Further, the “inhibition of PGI” value against TbINO1 [2] is “Inhibition was observed”.

As for `O=P(O)(O)O[C@H]1O[C@H](CO)[C@@H](O)[C@H](O)[C@H]1O` [Glucose-1-P, glucose-1-phosphate], the “inhibition of INO1 activity” value against TbINO1 [1] is reported as “No inhibition”. The IC50 on TbINO1 [1] (setting [6]) and on TbINO1 [2] (setting [7]) was greater than 10 mM throughout. Moreover, at TbINO1 [2], the “inhibition of PGI” value is on record as “No inhibition”.

As to `C=C(OP(=O)(O)O)C(=O)O` [PEP], at TbINO1 [1], the “inhibition of INO1 activity” value is reported as “No inhibition”. Moreover, the IC50 on TbINO1 [1] (setting [4]) and at TbINO1 [2] (setting [5]) was greater than 10 mM each time. For the same compound, at TbINO1 [2], the “inhibition of PGI” value is recorded as “No inhibition”.

For `O=P(O)(O)OC[C@H]1OC(O)C[C@@H](O)[C@@H]1O` (some centres unmarked) [2-Deoxyglucose-6-P], the concentration for half-maximal inhibition (IC50) against TbINO1 [1] and on TbINO1 [2] was 4 mM in each case.

Regarding `O=C[C@H](O)[C@@H](O)[C@@H](O)[C@H](O)COP(=O)(O)O` [Galactose-6-P, galactose-6-phosphate], on TbINO1 [1], the IC50 is greater than 10 mM and the “inhibition of INO1 activity” value is reported as “No inhibition”. Besides, at TbINO1 [2], the IC50 was greater than 10 mM and the “inhibition of PGI” value was “No inhibition”.
